This is an account of results in ChEMBL document CHEMBL5550205, “Discovery of a NCOA4 Degrader for Labile Iron-Dependent Ferroptosis Inhibition” (J Med Chem, 2024).

Calls of active or inactive are those of the source. The calls are words filed in the database; no cut-off is given here.

Assay [1] relates to Mus musculus. In words: Inhibition of CCl4-induced ferroptosis in acute liver injury C57BL/6 mouse model assessed as reduction in hepatocyte damage at 10 to 30 mg/kg, ip pretreated with compound for 3 hrs followed by CCl4 induction and measured after 12 to 24 hrs by H and E staining based analysis. The class given is functional, organism-based. The following applies: dose 10-30 mg/kg, time 15-27 hrs.

For assay [2], the system named is AML12. The experiment in a line: Protection against Brequinal-induced ferroptosis in mouse AML12 cells assessed as increase in cell viability at 200 nM measured for 48 hrs by cell counting-lite 2.0 analysis. Format: functional, cell-based.
In assay [3] the test system is Mus musculus. The experiment in a line: Inhibition of CCl4-induced ferroptosis in acute liver injury C57BL/6 mouse model assessed as restoration of liver color fading at 10 to 30 mg/kg, ip pretreated with compound for 3 hrs followed by CCl4 induction and measured after 12 to 24 hrs. Format: functional, organism-based. The conditions noted are these: dose 10-30 mg/kg, time 15-27 hrs.

Assay [4] relates to AML12. The experiment in a line: Protection against FINO2-induced ferroptosis in mouse AML12 cells assessed as attenuation of Fe2+ level by fluorescence imaging analysis. Format: functional, cell-based.
Assay [5] concerns Mus musculus. The experiment in a line: Inhibition of CCl4-induced ferroptosis in acute liver injury C57BL/6 mouse model assessed as reduction in necrosis at 10 to 30 mg/kg, ip pretreated with compound for 3 hrs followed by CCl4 induction and measured after 12 to 24 hrs by H and E staining based analysis. Format: functional, organism-based. The conditions noted are these: dose 10-30 mg/kg, time 15-27 hrs.

Assay [6] relates to AML12. The experiment in a line: Protection against CCl4-induced ferroptosis in mouse AML12 cells assessed as […] at 200 nM measured for 48 hrs. Format: functional, cell-based.
Assay [7] deals with von Hippel-Lindau disease tumor suppressor/Nuclear receptor coactivator 4 (Homo sapiens, UniProt P40337+Q13772). The experiment in a line: PROTAC activity at NCOA4/VHL in human HeLa cells assessed as induction of NCOA4 degradation measured for 24 hrs by Western blot analysis. Format: cell-based.
Assay [8] has as its system AML12. In words: Protection against iFSP1-induced ferroptosis in mouse AML12 cells assessed as attenuation of Fe2+ level by fluorescence imaging analysis. The class given is functional, cell-based.
The test system of assay [9] is Mus musculus. The experiment in a line: Inhibition of CCl4-induced ferroptosis in acute liver injury C57BL/6 mouse model assessed as reduction in TNF-alpha level in serum at 10 to 30 mg/kg, ip pretreated with compound for 3 hrs followed by CCl4 induction and measured after 12 to 24 hrs by ELISA analysis. The conditions noted are these: dose 10-30 mg/kg, time 15-27 hrs. The class given is functional, organism-based.

The test system of assay [10] is AML12. In words: Protection against RSL3-induced ferroptosis in mouse AML12 cells assessed as attenuation of Fe2+ level by fluorescence imaging analysis. Format: functional, cell-based.
For assay [11], the system named is AML12. The experiment in a line: Protection against Erastin-induced ferroptosis in mouse AML12 cells assessed as increase in cell viability at 200 nM measured for 48 hrs by cell counting-lite 2.0 analysis. The class given is functional, cell-based.
The subject of assay [12] is Mus musculus. In words: Inhibition of CCl4-induced ferroptosis in acute liver injury C57BL/6 mouse model assessed as attenuation of iron deposition in liver at 10 to 30 mg/kg, ip pretreated with compound for 3 hrs followed by CCl4 induction and measured after 12 to 24 hrs by perls blue staining based analysis. The class given is functional, organism-based. The following applies: dose 10-30 mg/kg, time 15-27 hrs.

Assay [13] concerns Mus musculus. The experiment in a line: Inhibition of CCl4-induced ferroptosis in acute liver injury C57BL/6 mouse model assessed as decrease in IL-6 expression in liver at 10 to 30 mg/kg, ip pretreated with compound for 3 hrs followed by CCl4 induction and measured after 12 to 24 hrs by q-PCR analysis. The class given is functional, organism-based. The conditions noted are these: dose 10-30 mg/kg, time 15-27 hrs.

Assay [14] has as its system Mus musculus. In words: Inhibition of CCl4-induced ferroptosis in acute liver injury C57BL/6 mouse model assessed as reduction in inflammation at 10 to 30 mg/kg, ip pretreated with compound for 3 hrs followed by CCl4 induction and measured after 12 to 24 hrs by H and E staining based analysis. The following applies: dose 10-30 mg/kg, time 15-27 hrs. Format: functional, organism-based.

Assay [15] concerns AML12. In words: Protection against CCl4-induced ferroptosis in mouse AML12 cells assessed as reduction in MDA content at 200 to 1000 nM measured for 36 hrs. Format: functional, cell-based. The following applies: dose 200-1000 nM.
Assay [16] deals with AML12. The experiment in a line: Inhibition of Ptgs2 mRNA expression in mouse AML12 cells measured for 36 hrs by qRT-PCR analysis. The class given is functional, cell-based. The following applies: dose <= 10.0 µM.
For assay [17], the system named is AML12. The experiment in a line: Protection against iFSP1-induced ferroptosis in mouse AML12 cells assessed as reduction in lipid peroxidation level at 200 nM measured for 48 hrs. The class given is functional, cell-based.
Assay [18] concerns Mus musculus. The experiment in a line: Inhibition of CCl4-induced ferroptosis in acute liver injury C57BL/6 mouse model assessed as inhibition of AST level at 10 to 30 mg/kg, ip pretreated with compound for 3 hrs followed by CCl4 induction and measured after 12 to 24 hrs. Format: functional, organism-based. The following applies: dose 10-30 mg/kg, time 15-27 hrs.
The subject of assay [19] is AML12. The experiment in a line: Protection against CCl4-induced ferroptosis in mouse AML12 cells assessed as reduction in Fe2+ level at 200 to 1000 nM FerroOrange dye based fluorescence analysis. The class given is functional, cell-based. The following applies: dose 200-1000 nM.
In assay [20] the test system is Mus musculus. In words: Inhibition of CCl4-induced ferroptosis in acute liver injury C57BL/6 mouse model assessed as downregulation of FTL level at 10 to 30 mg/kg, ip pretreated with compound for 3 hrs followed by CCl4 induction and measured after 12 to 24 hrs by Western blot analysis. Format: functional, organism-based. The following applies: dose 10-30 mg/kg, time 15-27 hrs.

Assay [21] concerns AML12. In words: Protection against CCl4-induced ferroptosis in mouse AML12 cells assessed as reduction in ROS production at 200 to 1000 nM measured for 36 hrs. Format: functional, cell-based. The conditions noted are these: dose 200-1000 nM.

von Hippel-Lindau disease tumor suppressor/Nuclear receptor coactivator 4, sequence (P40337 whole entry): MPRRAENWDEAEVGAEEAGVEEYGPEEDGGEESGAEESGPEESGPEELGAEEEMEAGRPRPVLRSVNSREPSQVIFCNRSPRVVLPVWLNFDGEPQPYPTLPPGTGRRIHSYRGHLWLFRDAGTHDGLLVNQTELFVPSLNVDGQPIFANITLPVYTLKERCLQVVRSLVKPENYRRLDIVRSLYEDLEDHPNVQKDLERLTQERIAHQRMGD
von Hippel-Lindau disease tumor suppressor/Nuclear receptor coactivator 4, sequence (Q13772 whole entry): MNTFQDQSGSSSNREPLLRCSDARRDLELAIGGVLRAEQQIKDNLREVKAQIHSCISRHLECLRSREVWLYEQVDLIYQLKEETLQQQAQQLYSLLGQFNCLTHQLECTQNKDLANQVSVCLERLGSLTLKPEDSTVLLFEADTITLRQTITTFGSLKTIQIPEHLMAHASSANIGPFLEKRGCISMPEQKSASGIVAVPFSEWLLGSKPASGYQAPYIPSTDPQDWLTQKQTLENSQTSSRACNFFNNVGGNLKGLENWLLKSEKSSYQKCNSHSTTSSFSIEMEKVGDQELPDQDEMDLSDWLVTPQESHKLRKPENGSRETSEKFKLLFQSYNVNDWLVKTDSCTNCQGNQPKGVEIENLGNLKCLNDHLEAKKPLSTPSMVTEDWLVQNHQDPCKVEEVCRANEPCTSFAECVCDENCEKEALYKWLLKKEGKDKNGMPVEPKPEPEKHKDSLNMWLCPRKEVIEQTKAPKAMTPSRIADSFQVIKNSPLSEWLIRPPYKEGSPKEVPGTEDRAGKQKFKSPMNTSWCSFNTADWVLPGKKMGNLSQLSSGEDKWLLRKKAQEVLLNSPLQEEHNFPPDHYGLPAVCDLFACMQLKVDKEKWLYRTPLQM

Consider `Cc1ncsc1-c1ccc(CNC(=O)[C@@H]2C[C@@H](O)CN2C(=O)[C@H](NC(=O)CCCC(=O)NCCOCCOCCOCCOc2ccc3c(c2)CCN(c2cccc(-c4nc5ccc(N6CCN(C)CC6)cc5[nH]4)c2)C3)C(C)(C)C)cc1`, for which the inhibition result with Mus musculus [1], in the assay with Mus musculus [3], with Mus musculus [5], with Mus musculus [9], with Mus musculus [12] and in the assay with Mus musculus [13] was “Active” throughout. For the same molecule, the inhibition result with Mus musculus [14], with Mus musculus [18] and with Mus musculus [20] was “Active” throughout. Also, the result with AML12 [2], with AML12 [4], in the assay with AML12 [6], with AML12 [8], with AML12 [10] and in the assay with AML12 [11] was Active. Further, the outcome in the assay on AML12 [15], in the assay on AML12 [17], in the assay on AML12 [19] and in the assay on AML12 [21] was Active. The DC50 in assay [7] turned out to be 3 nM. The inhibition result in the assay with AML12 [16] is “Dose-Dependent Effect”.
